Results reported in PubChem BioAssay AID248 (DTP/NCI, 2004).
Values joined by “and” are separate entries in the source; they are usually repeats but may differ in a detail not shown here. Equal values may be shown once. Toxic doses and inconclusive results are not listed. No stated cut-off is given here; in the data, active means T/C of 150% or more; inactive means T/C below 125%.

Tested on: L1210 leukemia ip in BDF1 mice, survival T/C
Assay: NCI In Vivo Anticancer Drug Screen. Data for tumor model L1210 Leukemia (intraperitoneal) in B6D2F1 (BDF1) mice
Conditions: endpoint: mean survival time, higher = longer survival
Summary of the method: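 Mice bearing the transplanted tumor received compound or vehicle. Survival of the treated group was divided by that of the vehicle-treated control group to give the ratio.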

[1] = dose: 100.0 mg/kg/injection, schedule: Q01DX009 (ip), vehicle: saline with Tween-80
[2] = dose: 200.0 mg/kg/injection, schedule: Q01DX009 (ip), vehicle: saline with Tween-80
[3] = dose: 400.0 mg/kg/injection, schedule: Q01DX009 (ip), vehicle: saline with Tween-80
[4] = dose: 50.0 mg/kg/injection, schedule: Q01DX009 (ip), vehicle: saline with Tween-80
[5] = dose: 100.0 mg/kg/injection, schedule: Q01DX001 (ip), vehicle: saline
[6] = dose: 200.0 mg/kg/injection, schedule: Q01DX001 (ip), vehicle: saline
[7] = dose: 400.0 mg/kg/injection, schedule: Q01DX001 (ip), vehicle: saline
[8] = dose: 100.0 mg/kg/injection, schedule: Q01DX009 (ip), vehicle: saline
[9] = dose: 100.0 mg/kg/injection, schedule: Q04DX003 (ip), vehicle: saline with Tween-80
[10] = dose: 200.0 mg/kg/injection, schedule: Q04DX003 (ip), vehicle: saline with Tween-80
[11] = dose: 400.0 mg/kg/injection, schedule: Q04DX003 (ip), vehicle: saline with Tween-80
[12] = dose: 100.0 mg/kg/injection, schedule: Q01DX009 (ip), vehicle: carboxymethylcellulose (CMC)
[13] = dose: 100.0 mg/kg/injection, schedule: Q04DX002 (ip), vehicle: carboxymethylcellulose (CMC)
[14] = dose: 200.0 mg/kg/injection, schedule: Q01DX009 (ip), vehicle: carboxymethylcellulose (CMC)
[15] = dose: 200.0 mg/kg/injection, schedule: Q04DX002 (ip), vehicle: carboxymethylcellulose (CMC)
[16] = dose: 400.0 mg/kg/injection, schedule: Q01DX009 (ip), vehicle: carboxymethylcellulose (CMC)
[17] = dose: 400.0 mg/kg/injection, schedule: Q04DX002 (ip), vehicle: carboxymethylcellulose (CMC)

Measured: T/C

O=C(O)CCCC(CC(=O)O)c1ccccc1 (centres undefined)
inactive: dose: 50.0 mg/kg/injection, schedule: Q04DX002 (ip), vehicle: saline 108 % of control | dose: 100.0 mg/kg/injection, schedule: Q04DX002 (ip), vehicle: saline 104 % of control | dose: 200.0 mg/kg/injection, schedule: Q04DX002 (ip), vehicle: saline 101 % of control

CC(=O)C(C)(C)Cl
inactive: [1] 94 % of control | [2] 95 % of control | [3] 101 % of control

NC1=NN(c2ccccc2)C(=O)/C1=C\c1ccccc1
inactive: [4] 102 % of control | [1] 98 % of control | [2] 91 % of control

Cc1cc(Cl)sc1Cl
inactive: dose: 100.0 mg/kg/injection, schedule: Q01DX001 (ip), vehicle: carboxymethylcellulose (CMC) 98 % of control | dose: 200.0 mg/kg/injection, schedule: Q01DX001 (ip), vehicle: carboxymethylcellulose (CMC) 93 % of control | dose: 400.0 mg/kg/injection, schedule: Q01DX001 (ip), vehicle: carboxymethylcellulose (CMC) 92 % of control

COc1cc(/C(C)=N\N(C)C)ccc1O
inactive: dose: 50.0 mg/kg/injection, schedule: Q01DX001 (ip), vehicle: saline 100 % of control | [5] 96 % of control | [6] 100 % of control | [7] 96 % of control

COC1/C=C\OC2(C)Oc3c(C)c(O)c4c(O)c(c(/C=N\OCCCc5ccccc5)c(O)c4c3C2=O)NC(=O)/C(C)=C\C=C/C(C)C(O)C(C)C(O)C(C)C(OC(C)=O)C1C (centres undefined)
inactive: dose: 25.0 mg/kg/injection, schedule: Q04DX003 (ip), vehicle: water 96 % of control | dose: 50.0 mg/kg/injection, schedule: Q04DX003 (ip), vehicle: water 104 % of control | dose: 100.0 mg/kg/injection, schedule: Q04DX003 (ip), vehicle: water 100 % of control | dose: 200.0 mg/kg/injection, schedule: Q04DX003 (ip), vehicle: water 100 % of control

CC(/C=C/c1ccc(O)cc1)=N\O
inactive: [1] 89 % of control | [2] 100 % of control

CN(CCN(C)C(=S)S)C(=S)S
inactive: dose: 100.0 mg/kg/injection, schedule: Q01DX002 (ip), vehicle: saline 99 % of control | dose: 200.0 mg/kg/injection, schedule: Q01DX002 (ip), vehicle: saline 99 % of control | dose: 400.0 mg/kg/injection, schedule: Q01DX002 (ip), vehicle: saline 105 % of control

COc1cc(OC)c(NC(=O)C2CC2)cc1Cl
inactive: dose: 100.0 mg/kg/injection, schedule: Q01DX009 (ip), vehicle: Klucel (hydroxypropylcellulose) (HPC) 110 % of control | dose: 200.0 mg/kg/injection, schedule: Q01DX009 (ip), vehicle: Klucel (hydroxypropylcellulose) (HPC) 104 % of control | dose: 400.0 mg/kg/injection, schedule: Q01DX009 (ip), vehicle: Klucel (hydroxypropylcellulose) (HPC) 110 % of control

COC(=O)Cc1cc(OC)c(OC)cc1I
inactive: [5] 105 % of control | [8] 96 % of control | [6] 100 % of control | dose: 200.0 mg/kg/injection, schedule: Q01DX009 (ip), vehicle: saline 102 % of control | [7] 102 % of control | dose: 400.0 mg/kg/injection, schedule: Q01DX009 (ip), vehicle: saline 102 % of control

O=C(c1ccccc1)c1cn(C2CCCCC2)c(-c2ccccc2)c1NC1CCCCC1
inactive: [1] 93 % of control | [2] 93 % of control | [3] 102 % of control

CCCCCCCCCCCCCCCCCCc1ccc(O)cc1O
inactive: [9] 89 % of control | [10] 92 % of control | [11] 86 % of control

COC(=O)C12C3OC(C4OC43)C1(C(=O)OC)C1OC2C2OC21 (centres undefined)
inactive: dose: 87.5 mg/kg/injection, schedule: Q01DX009 (ip), vehicle: Klucel (hydroxypropylcellulose) (HPC) 100 % of control | dose: 175.0 mg/kg/injection, schedule: Q01DX009 (ip), vehicle: Klucel (hydroxypropylcellulose) (HPC) 101 % of control | dose: 350.0 mg/kg/injection, schedule: Q01DX009 (ip), vehicle: Klucel (hydroxypropylcellulose) (HPC) 101 % of control

COC(=O)CCC(C)C1CCC2C3C(OC(C)=O)CC4CC(O)CCC4(C)C3CC(O)C12C (centres undefined)
inactive: [12] 93 % of control and 107 % of control | [13] 93 % of control and 97 % of control | dose: 100.0 mg/kg/injection, schedule: Q04DX003 (ip), vehicle: carboxymethylcellulose (CMC) 104 % of control | [14] 91 % of control and 92 % of control | [15] 97 % of control and 98 % of control | dose: 200.0 mg/kg/injection, schedule: Q04DX003 (ip), vehicle: carboxymethylcellulose (CMC) 97 % of control | [16] 94 % of control and 88 % of control | [17] 97 % of control | dose: 400.0 mg/kg/injection, schedule: Q04DX003 (ip), vehicle: carboxymethylcellulose (CMC) 95 % of control

CCn1c(COc2ccc(Cl)cc2Cl)c(COC(=O)c2cccc(Cl)c2)c2ccccc21
inactive: [12] 98 % of control and 103 % of control | [13] 101 % of control and 102 % of control | [14] 97 % of control and 98 % of control | [15] 94 % of control and 98 % of control | [16] 87 % of control | [17] 95 % of control and 91 % of control

CCCC(C)(CC)C(=O)O (centres undefined)
inactive: dose: 75.0 mg/kg/injection, schedule: Q01DX001 (ip), vehicle: acetone 108 % of control | dose: 150.0 mg/kg/injection, schedule: Q01DX001 (ip), vehicle: acetone 101 % of control | dose: 300.0 mg/kg/injection, schedule: Q01DX001 (ip), vehicle: acetone 98 % of control

Cc1cccc(CC23CC4CC(CC(C4)C2)C3)c1
inactive: [1] 91 % of control | [9] 102 % of control | [2] 90 % of control | [10] 100 % of control | [3] 95 % of control | [11] 98 % of control

CCC[CH2][Sn]1([CH2]CCC)[O]C(=O)c2cccc([N+](=O)[O-])c2C(=O)[O]1
inactive: [5] 117 % of control

C=CCc1ccc(OC(=O)Nc2cccc(C)c2)c(OC)c1
inactive: [4] 98 % of control | [1] 112 % of control | dose: 100.0 mg/kg/injection, schedule: Q04DX002 (ip), vehicle: saline with Tween-80 99 % of control | [2] 101 % of control and 102 % of control | dose: 200.0 mg/kg/injection, schedule: Q04DX002 (ip), vehicle: saline with Tween-80 89 % of control

Nc1ccc(I)c([N+](=O)[O-])c1
inactive: dose: 100.0 mg/kg/injection, schedule: Q04DX003 (ip), vehicle: acetone 87 % of control | dose: 200.0 mg/kg/injection, schedule: Q04DX003 (ip), vehicle: acetone 92 % of control | dose: 400.0 mg/kg/injection, schedule: Q04DX003 (ip), vehicle: acetone 101 % of control

Nc1nc(-c2ccccc2)c(CCCCc2ccccc2)c(=O)[nH]1
inactive: dose: 50.0 mg/kg/injection, schedule: Q01DX Z (ip), vehicle: carboxymethylcellulose (CMC) 97 % of control | dose: 200.0 mg/kg/injection, schedule: Q01DX Z (ip), vehicle: carboxymethylcellulose (CMC) 89 % of control

NOCc1cccc2cccnc12
inactive: dose: 25.0 mg/kg/injection, schedule: Q01DX009 (ip), vehicle: saline 100 % of control | dose: 50.0 mg/kg/injection, schedule: Q01DX009 (ip), vehicle: saline 100 % of control | [8] 97 % of control | dose: 100.0 mg/kg/injection, schedule: Q04DX003 (ip), vehicle: saline 89 % of control | dose: 200.0 mg/kg/injection, schedule: Q04DX003 (ip), vehicle: saline 94 % of control | dose: 400.0 mg/kg/injection, schedule: Q04DX003 (ip), vehicle: saline 96 % of control
